Results: publication PMC5215778, “Molecular Characterization of N-glycan Degradation and Transport in Streptococcus pneumoniae and Its Contribution to Virulence” (PLoS Pathogens, 2017)

How the values were obtained:
[1] = biological target: T1, NgtS (Streptococcus pneumoniae, UniProt A0A0H2UMY0); assay: UV difference titration; conditions: read-out: affinity constant; bimolecular binding model with ligand depletion
T1 construct: gene SP_0092; residues 25-491, secretion signal peptide and lipobox removed, C-terminal six-histidine tag, expressed in E. coli BL21 Star (DE3)
T1 sequence (A0A0H2UMY0 25-491): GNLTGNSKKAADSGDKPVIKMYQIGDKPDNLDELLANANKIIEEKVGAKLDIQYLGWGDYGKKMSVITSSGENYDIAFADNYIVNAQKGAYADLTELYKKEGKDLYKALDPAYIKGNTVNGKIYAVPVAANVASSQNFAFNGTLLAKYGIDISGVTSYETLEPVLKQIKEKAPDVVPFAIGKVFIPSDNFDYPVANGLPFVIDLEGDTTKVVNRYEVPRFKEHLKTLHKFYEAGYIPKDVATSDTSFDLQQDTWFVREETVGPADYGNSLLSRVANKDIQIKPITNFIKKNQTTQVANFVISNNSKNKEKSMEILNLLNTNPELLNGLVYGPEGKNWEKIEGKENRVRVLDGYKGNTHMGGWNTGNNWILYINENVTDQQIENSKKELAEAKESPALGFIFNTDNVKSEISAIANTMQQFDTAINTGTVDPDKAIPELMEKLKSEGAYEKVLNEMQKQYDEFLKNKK

[2] = biological target: T1, NgtS; assay: ITC; conditions: 20 mM Tris, pH 8.0, 25 °C; 1:1 binding
[3] = biological target: T2, SpGH92 (Streptococcus pneumoniae, UniProt A0A0H2US35); assay: UPLC-MS; assay type: biochemical; conditions: 10 mM MOPS pH 7.0, 2 mM CaCl2, room temperature, 16 h, 0.6 μM substrate, 1 μM enzyme
T2 construct: gene SP_2145

[4] = biological target: T2, SpGH92; assay: X-ray crystal structure, […] Å; assay type: binding; conditions: crystal soaked with α-(1,2)-mannobiose; mannose in +1 subsite, Ca2+ and glycerol bound
[5] = biological target: the molecule itself; assay: crystal structure; crystals grown in 2.25 M (NH4)2SO4, 0.1 M Bis-Tris pH 5.5, soaked with α-(1,2)-mannobiose; four molecules in the asymmetric unit

## CC(=O)N[C@H]1C(O)O[C@H](CO)[C@@H](O[C@@H]2O[C@H](CO)[C@@H](O)[C@H](O)[C@@H]2O)[C@@H]1O (some centres unmarked) [Man1GlcNAc]
[1]
  Kd: 83.3 µM

## CC(=O)N[C@H]1C(O)O[C@H](CO)[C@@H](O[C@@H]2O[C@H](CO[C@H]3O[C@H](CO[C@H]4O[C@H](CO)[C@@H](O)[C@H](O)[C@@H]4O)[C@@H](O)[C@H](O[C@H]4O[C@H](CO)[C@@H](O)[C@H](O)[C@@H]4O)[C@@H]3O)[C@@H](O)[C@H](O[C@H]3O[C@H](CO)[C@@H](O)[C@H](O)[C@@H]3O)[C@@H]2O)[C@@H]1O (some centres unmarked) [Man5GlcNAc]
[2]
  Ka: 1.04 (± 0.01)×10^6

## CC(=O)N[C@H]1[C@H](O[C@H]2[C@H](O)[C@@H](NC(C)=O)C(O)O[C@@H]2CO)O[C@H](CO)[C@@H](O[C@@H]2O[C@H](CO[C@H]3O[C@H](CO[C@H]4O[C@H](CO)[C@@H](O)[C@H](O)[C@@H]4O[C@H]4O[C@H](CO)[C@@H](O)[C@H](O)[C@@H]4O)[C@@H](O)[C@H](O[C@H]4O[C@H](CO)[C@@H](O)[C@H](O)[C@@H]4O[C@H]4O[C@H](CO)[C@@H](O)[C@H](O)[C@@H]4O)[C@@H]3O)[C@@H](O)[C@H](O[C@H]3O[C@H](CO)[C@@H](O)[C@H](O)[C@@H]3O[C@H]3O[C@H](CO)[C@@H](O)[C@H](O)[C@@H]3O[C@H]3O[C@H](CO)[C@@H](O)[C@H](O)[C@@H]3O)[C@@H]2O)[C@@H]1O (some centres unmarked) [Man9GlcNAc2]
[3]
  UPLC-MS: treatment of Man9GlcNAc2 with SpGH92 produced a glycan having a mass consistent with Man5GlcNAc2

## OC[C@H]1OC(O)[C@@H](O)[C@@H](O)[C@@H]1O (some centres unmarked) [mannose]
[4]
  X-ray crystal structure, 2.15 Å: electron density consistent with a single mannose residue, resulting from the hydrolysis

B1: SpGH92 (SP_2145), α-(1,2)-mannosidase from Streptococcus pneumoniae TIGR4 (enzyme)
chain: MKPLLETIDTRFGTTNKHAFSRGNTLPYTGVPFGMNYFVPQTSDQDGSWFFDPHLPIFQGIRLTHQPSPWIGDYSWLLLTPVTSQLGGDSLFHRQSSYDIDKACFQPHYLKLFSLRYQIETQLTPTCYGASIRLNQKQGKALSLYLHAADELTVEQVDKRTLALRQEGKTETNKNSLTMFTALQMNTDILAISQEAGDWRIDLASSQTEMQLATSFISPSQALINLPQEDFDSCKSSAQVDWENLLHRFDIIETGEADRTFFDHCLYRLFLFPQTFYEINESGQAIHMDLATGTVKPGVLFSNNGFWDTFRTTFPLFALIIPEHYQRFLEGFLNSYRDTGFLPKWLAPDERGMMPGTLLDGIIADSACKDMTPDLEGELFQAMLETASKADPLGINGRHGLAQYQELGYLSTDHHESVSHTLDYAYSDFCIASCAKKLENIEIAETYKAASQNYRQLFDAETGYMRARDNQGNFHPDFSPYSWGRDYAECSAIQATLGVLHDIPGLIQLMGGKETFSNYLLKACQDAPLFETTGYGYEIHEMSEMATAPFGQIAISNQPSFHIPYLFRYSDYPDYTALLIKTLRQKAFHPSWEAYPGDEDNGSLSAWYIWSALGFYPTCPGKPSYDLGIPLFDHLRVYLAKEDKWLDIHTKQNHNHFNFVKECRLDKTLVSTIQHQDLLKAEQLTFTLSWLPSH
notes: SpGH92, family 92 glycoside hydrolase, S. pneumoniae TIGR4 locus tag SP_2145, amino acids 1-694, cloned in pET28a between NheI and XhoI; Tetramer with D2 symmetry in the crystal and in solution; theoretical molecular weight of the tetramer 325.96 kDa; source: E. coli BL21 Star (DE3), autoinduction, purified (Ni-NTA)
[5]
  stoichiometry N: 4
